The values below come from patent EP2796042A1, “Compounds promoting plant growth” (Albert-Ludwigs-Universität Freiburg, priority 2013, dated 2014).

The test system of data set [1] is Arabidopsis thaliana. The data set can be described thus: Root growth and development of seedlings on AM medium with exogenous compound. Type of data set: in vivo. To be noted: for SULF inhibition on plant development: 100µM compound with 100µM sulfanilamide (Fig. 10F), 6 day-old; for plant-root waving: 100µM supplemented media (Fig. 10B). The procedure: To get more insights into the pABA role on plant development, plants were grown in presence of pABA. […] Arabidopsis root waving occurs when plants are grown at the surface of an agar plate that is slightly tilted.

In data set [2] the test system is ADCS-RNAi seedlings. The data set can be described thus: Rescue of root growth arrest after conditional down regulation of GAT-ADCS (estradiol-inducible RNAi). In kind it is in vivo, Arabidopsis thaliana. To be noted: EST-induced; 50µM compound for 6 days (Fig. 9C).
Data set [3] deals with Lex::UGT75B. Briefly: Rescue of root defects of estradiol-induced Lex::UGT75B plants. Type of data set: in vivo, Arabidopsis thaliana. The text has this: Plant growth relies on auxin gradients maintained by series of auxin influx carriers of the AUXIN RESISTANT 1/ Like AUX1 (AUX/LAX) family, efflux facilitators such as ABCB/multi-drug resistance/P-glycoprotein (ABCB/MDR/PGP), and PIN-FORMED (PIN) proteins. PIN-proteins subcellular localization is highly dynamic and influenced by various internal and external signals, thereby directing and redirecting the intercellular fluxes of auxin[25]. […] During plant response to gravity, auxin transport through AtPIN2 plays a crucial role and pin2 mutants are unable to establish lateral auxin gradient after gravistimulation and therefore are agravitropic.

In data set [4] the test system is Arabidopsis seedlings (Wild type Col 0). The data set can be described thus: Safener activity on seedlings grown in presence of inhibitory concentrations of auxin (IAA). Type of data set: in vivo, Arabidopsis thaliana. Conditions: for root growth in the presence of inhibitory concentrations of IAA: 100 µM compound, 2 µM IAA. The procedure:
It was tested whether benzoic acid derivatives can counteract the activity of natural auxins (IAA) (Figure 17 and Figure 18). The experiments were carried out as described for Figure 10.

The subject of data set [5] is Arabidopsis thaliana. The data set can be described thus: Plants growing in agar plates supplemented with pABA. Conditions: 200 µM pABA in agar plates, vs untreated plants. In kind it is in vivo. The text has this: (§1) They were 3 replicates for each experiment.
The subject of data set [6] is Lycopersicum esculentum. The data set is described as above. In kind it is in vivo. Conditions: 200 µM pABA in agar plates, vs untreated plants.
From the text: as §1

In data set [7] the test system is Arabidopsis thaliana. Briefly: Plants growing in soil and watered or sprayed with a solution of pABA. In kind it is in vivo. The procedure:
Arabidopsis plants were grown from seeds in pots in a mixture of soil and vermiculite and watered with tap water for 15 days. Then watering was stopped for 48h until soil looked dried at the surface of the pot. A total of 4 trails containing 51 pots each were divided into 2 parts. […] The other trails were sprayed with solutions described above. […] Plants growing in soil and watered or sprayed with a solution containing pABA

Data set [8] concerns Zea mays. The data set can be described thus: Plants growing in soil and watered with a solution containing pABA. Type of data set: in vivo. To be noted: watered with 1 mM pABA; n=10. How it is done: Maize seeds were germinated in Petri® dishes containing deionized-water-humidified Whatman® paper. Germinations of equal size were transferred in pots (one per pot) containing a mixture of soil and vermiculite and watered with tap water for 30 days. Then watering was stopped for 48h until soil looked dried at the surface of the pot.

In data set [9] the test system is Poplar explants. Briefly: Induction of adventitious roots on poplar explants. Type of data set: in vivo. To be noted: 200 µM pABA. The source says:
Since pABA can stimulate adventitious development in Arabidopsis, we tested whether pABA could also promotes adventitious development on poplar, a commercially important tree.

Data set [10] concerns Arabidopsis seedlings. Briefly: Root response to gravity after rotating agar plates by 135°. To be noted: plates rotated to 135° for 3h (Fig. 10G). Type of data set: in vivo, Arabidopsis thaliana.
The subject of data set [11] is adcs-2. The data set can be described thus: Homozygous adcs2 rescue experiment with pABA. Type of data set: in vivo, Arabidopsis thaliana. Conditions: opened siliques transplanted on medium supplemented with pABA. The text has this:
adcs T-DNA mutants (SALK_095283 and SALK_034215) were in Arabidopsis thaliana (L.) Heynh., ecotype Columbia (Col-0) background and ugt75b (AY027263) in Landsberg erecta (Ler).

Data set [12] concerns Arabidopsis seedlings. Briefly: Activity of benzoic acid derivatives on root growth. In kind it is in vivo, Arabidopsis thaliana. To be noted: AM supplemented with 100 µM compound.
For data set [13] the following is noted: cited from earlier work.

On to `Nc1nc2c(c(=O)[nH]1)N(C=O)C(CNc1ccc(C(=O)N[C@@H](CCC(=O)O)C(=O)O)cc1)CN2` (stereo partly drawn) [5-FTHF, 5-formyl-tetrahydrofolate, reference compound], for which, in data set [1], the “SULF inhibition on plant development” value was “reverted” and the plant-root waving entry is on record as “not”. Further, the “phenocopy of the activity of pABA” value in data set [1] (applied at similar concentrations as pABA) is on record as “did not phenocopy the activity of pABA”. For the same compound, the “rescue of arrested roots” value in [2] is “could be rescued”. Besides, the “root growth recovery upon strong UGT75B induction” value in data set [3] (20µM EST, 400µM compound (Fig. 14)) is on record as “very poorly”. The “effect of supplementation on growth defects of β-estradiol-induced UGT75B plants” value in [3] (weak induction 0.1µM EST, 200µM 5-FTHF (Fig. 13E)) is listed as “had no effect”. Moreover, the “root growth in the presence of inhibitory concentrations of IAA” value in data set [4] is recorded as “fully restored root growth”.

With `CCN(CC)CCOC(=O)c1ccc(N)cc1` [Procaine, procaine, reference compound], the “root growth in the presence of inhibitory concentrations of IAA” value in data set [4] is “fully restored root growth”.

For the compound `Nc1ccc(C(=O)O)cc1` [pABA, 4-aminobenzoic acid], in [5] (after 10 days), the adventitious roots entry is “more adventitious roots” and the lateral roots entry is “more lateral roots”. In data set [5] (six days after germination), the root hairs result is on record as “longer root hairs”. In [6] (after 10 days), the adventitious roots result is on record as “more adventitious roots” and the lateral roots entry was “more lateral roots”. Moreover, the root hairs entry in data set [6] (six days after germination) is recorded as “longer root hairs”. The “greater fresh weight than plant sprayed with only water” value in data set [7] (foliar application of 1 mM pABA) came to 17.54%. Also, the “fresh weight of Arabidopsis aerial parts, Sprayed” value in [7] (sprayed with 1 mM pABA, n=51) is given as 0,62 ± 0,02. The “fresh weight of Arabidopsis aerial parts, Watered” value in data set [7] (watered with 1 mM pABA, n=51) is reported as 1,08 ± 0,03. For the same compound, the “induced fresh weight of Arabidopsis aerial parts on average” value in data set [7] (watering with 1 mM pABA, vs water) amounted to 3.84%. In data set [8], the Number of leaves worked out at 6.58 ±0.14 and the Root weight is 7.85 ± 0.49 g. In [9] (n=20), the Adventitious root number amounted to 6.15, the “Entire plant fresh weight” value is 216 ± 23.69 mg, the Number of leaves is listed as 8.09±0.59 and the Roots fresh weight is 68.68 mg. For the same compound, the “Roots fresh weight, percentage in brackets” value in [9] (presumably increase vs control) stood at 46%. Moreover, the “more adventitious than control” value in data set [9] (vs control) is 129%. For the same compound, in data set [1], the “SULF inhibition on plant development” value was “reverted” and the plant-root waving entry is on record as “suppressed”. Further, the “development of LR and AR” value in data set [1] (100µM supplemented media (Fig. 10C)) was “induces development of LR and AR”. Further, the root hair length result in data set [1] (pABA treatment (Fig. 10D-E)) is “increases root hair length”. Besides, the “Concentrations that inhibited root growth and promoted lateral and adventitious roots development as well as root hair growth” value in data set [1] (wild type seedlings on AM, aerial part not affected) is listed as “greater than 50 µM”. The “gravitropic response of Arabidopsis primary root” value in data set [10] was “increases gravitropic response”. Also, the “development of embryos arrested at the globular stage” value in data set [11] is recorded as “could develop further”. Also, the “rescue of arrested roots” value in data set [2] was “could be rescued”. Also, in data set [4] (1 µM IAA + 100µM pABA), the “growth-inhibitory effects of IAA” value was “could antagonize”. Further, the “root growth in the presence of inhibitory concentrations of IAA” value in data set [4] is “fully restored root growth”. For the same compound, the root growth-promoting activity result in [12] is recorded as “significant root growth-promoting activity”. In addition, in [13], the pKa value result was “about 4.9”.

`Nc1cccc(C(=O)O)c1` [mABA, 3-aminobenzoic acid]: the “root growth in the presence of inhibitory concentrations of IAA” value in [4] is on record as “fully restored root growth”.
